Consider 20 compounds from patent US10125098B2, “Therapeutic compounds and methods of use thereof” (GENENTECH, INC., priority 2014, dated 2018).

In one series the target is T1, hNav1.7 (Homo sapiens, UniProt Q15858).
T1 construct: expressed in transfected cells
Put plainly: Tritiated compound binding (LBA) to membranes from cells expressing hNav1.7 and the β1 subunit, competitive binding. Particulars: competitive binding vs 100 pM [3H]compound, 18 h, room temperature, membranes with hNav1.7 and β1 subunit. An outline of the steps: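 Membranes from cells expressing hNav1.7 with β1 were incubated 18 h at room temperature with 100 pM tritiated formula (I) compound and increasing test compound, in 100 mM NaCl, 20 mM Tris HCl pH 7.4, 0.01% BSA.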

In the next series the target is T2, human NaV1.7 (Homo sapiens, UniProt Q15858).
T2 construct: permanently transfected with an expression vector containing the full-length cDNA coding for the desired human sodium channel α-subunit; expressed in transfected cells; host or cells: HEK-293
Put plainly: Patch voltage clamp electrophysiology assay (EP), NaV1.7. The series is classed as cell-based. Particulars: HEK-293 cells stably expressing NaV1.7 with β1 subunit; whole-cell patch clamp, membrane potential −60 mV (inactivated state). The protocol: (§1) The following patch voltage clamp electrophysiology studies were performed on representative compounds of the invention using human embryonic kidney cells (HEK), permanently transfected with an expression vector containing the full-length cDNA coding for the desired human sodium channel α-subunit, grown in culture media containing 10% FBS, 1% PSG, and 0.5 mg/mL G418 at 37° C. with 5% CO2. […] NaV1.7 and NaV1.5 cDNAs (NM_002977 and AC137587; SCN5A, respectively) were stably expressed in HEK-293 cells. The β1 subunit was coexpressed in both the NaV1.7 and NaV1.5 cell lines.
(§2) Sodium currents were measured using the patch clamp technique in the whole-cell configuration using either a PatchXpress automated voltage clamp or manually using an Axopatch 200B (Axon Instruments) or Model 2400 (A-M systems) amplifier. The manual voltage clamp protocol was as follows: Borosilicate glass micropipettes were fire-polished to a tip diameter yielding a resistance of 2-4 Mohms in the working solutions. The pipette was filled with a solution comprised of: 5 mM NaCl, 10 mM CsCl, 120 mM CsF, 0.1 mM CaCl2, 2 mM MgCl2, 10 mM HEPES, 10 mM EGTA; and adjusted to pH 7.2 with CsOH. The external solution had the following composition: 140 mM NaCl, 5 mM KCl, 2 mM CaCl2, 1 mM MgCl2, 10 mM HEPES; and adjusted to pH 7.4 with NaOH. In some studies, the external sodium was reduced by equimolar replacement with choline. Osmolarity in the CsF internal and NaCl external solutions was adjusted to 300 mOsm/kg and 310 mOsm/kg with glucose, respectively. All recordings were performed at ambient temperature in a bath chamber with a volume of 150 μL. Control sodium currents were measured in 0.5% DMSO. Controls and representative compounds of the invention were applied to the recording chamber through a 4-pinch or 8-pinch valve bath perfusion system manufactured by ALA Scientific Instruments.
(§3) Series resistance compensation was applied (60-80%). […] All statistics in this study are given as mean±SD.
(§4) The membrane potential was maintained at a voltage where inactivation of the channel is complete (which was −60 mV for both NaV1.7 and NaV1.5). The voltage is then stepped back to a very negative (Vhold=[…]) voltage for 20 ms and then a test pulse is applied to quantify the compound block. […] The percent decrease in sodium current following wash-on of compound was taken as the percent block of sodium channels.
(The patch-clamp technique gives a direct electrical read-out from membranes.)

A further series has as its target T3, NaV1.5 (Homo sapiens, UniProt Q14524).
T3 construct: permanently transfected with an expression vector containing the full-length cDNA coding for the desired human sodium channel α-subunit; expressed in transfected cells; host or cells: HEK-293
Put plainly: Patch voltage clamp electrophysiology assay (EP), NaV1.5. The series is classed as cell-based. Particulars: HEK-293 cells stably expressing NaV1.5 with β1 subunit, whole-cell patch clamp, membrane potential −60 mV (inactivated state). On the procedure:
as §1, §2, §3, §4

SMILES strings stand for the structures. Read-outs that look alike come from different tables or passages of the source.

T3 sequence (Q14524 whole entry): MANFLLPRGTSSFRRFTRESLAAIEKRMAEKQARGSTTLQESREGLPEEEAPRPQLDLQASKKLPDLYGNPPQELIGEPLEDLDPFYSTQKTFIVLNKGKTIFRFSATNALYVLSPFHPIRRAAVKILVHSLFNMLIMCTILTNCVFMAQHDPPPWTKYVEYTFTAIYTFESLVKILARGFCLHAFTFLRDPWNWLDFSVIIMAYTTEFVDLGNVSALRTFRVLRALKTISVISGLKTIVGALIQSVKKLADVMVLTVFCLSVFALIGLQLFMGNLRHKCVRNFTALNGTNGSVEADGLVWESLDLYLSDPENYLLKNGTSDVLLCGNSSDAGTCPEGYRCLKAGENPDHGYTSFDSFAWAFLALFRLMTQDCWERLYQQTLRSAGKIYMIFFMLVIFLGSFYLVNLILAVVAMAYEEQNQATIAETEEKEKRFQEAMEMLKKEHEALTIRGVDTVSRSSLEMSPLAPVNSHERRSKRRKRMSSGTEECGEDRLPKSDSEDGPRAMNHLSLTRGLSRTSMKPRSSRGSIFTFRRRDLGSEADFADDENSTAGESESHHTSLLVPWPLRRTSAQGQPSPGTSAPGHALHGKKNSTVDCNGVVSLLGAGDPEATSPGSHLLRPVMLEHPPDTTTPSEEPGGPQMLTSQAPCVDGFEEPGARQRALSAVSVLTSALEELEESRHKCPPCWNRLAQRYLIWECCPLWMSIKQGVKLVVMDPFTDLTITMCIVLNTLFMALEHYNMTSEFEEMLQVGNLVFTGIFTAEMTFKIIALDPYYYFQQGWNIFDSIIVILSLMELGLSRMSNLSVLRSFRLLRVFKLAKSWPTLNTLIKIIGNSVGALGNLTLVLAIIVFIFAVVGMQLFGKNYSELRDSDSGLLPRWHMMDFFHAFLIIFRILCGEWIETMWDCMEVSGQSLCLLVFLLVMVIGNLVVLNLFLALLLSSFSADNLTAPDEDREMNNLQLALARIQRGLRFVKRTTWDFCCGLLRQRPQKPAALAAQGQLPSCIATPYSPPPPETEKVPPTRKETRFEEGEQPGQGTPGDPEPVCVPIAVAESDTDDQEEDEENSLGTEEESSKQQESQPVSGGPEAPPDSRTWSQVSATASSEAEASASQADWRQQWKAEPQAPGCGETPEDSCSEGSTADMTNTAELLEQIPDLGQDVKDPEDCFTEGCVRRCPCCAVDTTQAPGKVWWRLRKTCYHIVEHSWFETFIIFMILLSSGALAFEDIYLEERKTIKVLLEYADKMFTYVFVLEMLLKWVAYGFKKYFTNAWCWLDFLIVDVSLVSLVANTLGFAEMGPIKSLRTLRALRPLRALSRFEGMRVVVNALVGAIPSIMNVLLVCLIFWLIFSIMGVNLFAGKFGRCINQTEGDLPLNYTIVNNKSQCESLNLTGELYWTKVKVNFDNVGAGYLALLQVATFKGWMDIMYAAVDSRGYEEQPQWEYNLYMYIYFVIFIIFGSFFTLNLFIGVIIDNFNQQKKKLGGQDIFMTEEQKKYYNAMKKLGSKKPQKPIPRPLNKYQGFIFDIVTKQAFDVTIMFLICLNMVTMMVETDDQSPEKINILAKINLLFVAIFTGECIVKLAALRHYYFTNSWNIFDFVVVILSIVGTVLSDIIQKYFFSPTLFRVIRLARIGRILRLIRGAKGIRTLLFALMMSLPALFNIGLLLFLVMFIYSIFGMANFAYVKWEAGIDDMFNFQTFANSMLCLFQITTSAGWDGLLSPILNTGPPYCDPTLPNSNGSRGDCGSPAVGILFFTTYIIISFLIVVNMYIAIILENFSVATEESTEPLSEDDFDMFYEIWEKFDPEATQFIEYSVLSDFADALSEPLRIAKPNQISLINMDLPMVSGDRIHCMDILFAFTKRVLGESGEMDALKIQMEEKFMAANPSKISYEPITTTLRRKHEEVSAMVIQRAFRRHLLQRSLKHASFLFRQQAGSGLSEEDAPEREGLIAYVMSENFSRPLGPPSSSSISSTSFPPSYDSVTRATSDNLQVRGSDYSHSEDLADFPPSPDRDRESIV
T1 sequence (Q15858 1-1977 isoform Q15858-3): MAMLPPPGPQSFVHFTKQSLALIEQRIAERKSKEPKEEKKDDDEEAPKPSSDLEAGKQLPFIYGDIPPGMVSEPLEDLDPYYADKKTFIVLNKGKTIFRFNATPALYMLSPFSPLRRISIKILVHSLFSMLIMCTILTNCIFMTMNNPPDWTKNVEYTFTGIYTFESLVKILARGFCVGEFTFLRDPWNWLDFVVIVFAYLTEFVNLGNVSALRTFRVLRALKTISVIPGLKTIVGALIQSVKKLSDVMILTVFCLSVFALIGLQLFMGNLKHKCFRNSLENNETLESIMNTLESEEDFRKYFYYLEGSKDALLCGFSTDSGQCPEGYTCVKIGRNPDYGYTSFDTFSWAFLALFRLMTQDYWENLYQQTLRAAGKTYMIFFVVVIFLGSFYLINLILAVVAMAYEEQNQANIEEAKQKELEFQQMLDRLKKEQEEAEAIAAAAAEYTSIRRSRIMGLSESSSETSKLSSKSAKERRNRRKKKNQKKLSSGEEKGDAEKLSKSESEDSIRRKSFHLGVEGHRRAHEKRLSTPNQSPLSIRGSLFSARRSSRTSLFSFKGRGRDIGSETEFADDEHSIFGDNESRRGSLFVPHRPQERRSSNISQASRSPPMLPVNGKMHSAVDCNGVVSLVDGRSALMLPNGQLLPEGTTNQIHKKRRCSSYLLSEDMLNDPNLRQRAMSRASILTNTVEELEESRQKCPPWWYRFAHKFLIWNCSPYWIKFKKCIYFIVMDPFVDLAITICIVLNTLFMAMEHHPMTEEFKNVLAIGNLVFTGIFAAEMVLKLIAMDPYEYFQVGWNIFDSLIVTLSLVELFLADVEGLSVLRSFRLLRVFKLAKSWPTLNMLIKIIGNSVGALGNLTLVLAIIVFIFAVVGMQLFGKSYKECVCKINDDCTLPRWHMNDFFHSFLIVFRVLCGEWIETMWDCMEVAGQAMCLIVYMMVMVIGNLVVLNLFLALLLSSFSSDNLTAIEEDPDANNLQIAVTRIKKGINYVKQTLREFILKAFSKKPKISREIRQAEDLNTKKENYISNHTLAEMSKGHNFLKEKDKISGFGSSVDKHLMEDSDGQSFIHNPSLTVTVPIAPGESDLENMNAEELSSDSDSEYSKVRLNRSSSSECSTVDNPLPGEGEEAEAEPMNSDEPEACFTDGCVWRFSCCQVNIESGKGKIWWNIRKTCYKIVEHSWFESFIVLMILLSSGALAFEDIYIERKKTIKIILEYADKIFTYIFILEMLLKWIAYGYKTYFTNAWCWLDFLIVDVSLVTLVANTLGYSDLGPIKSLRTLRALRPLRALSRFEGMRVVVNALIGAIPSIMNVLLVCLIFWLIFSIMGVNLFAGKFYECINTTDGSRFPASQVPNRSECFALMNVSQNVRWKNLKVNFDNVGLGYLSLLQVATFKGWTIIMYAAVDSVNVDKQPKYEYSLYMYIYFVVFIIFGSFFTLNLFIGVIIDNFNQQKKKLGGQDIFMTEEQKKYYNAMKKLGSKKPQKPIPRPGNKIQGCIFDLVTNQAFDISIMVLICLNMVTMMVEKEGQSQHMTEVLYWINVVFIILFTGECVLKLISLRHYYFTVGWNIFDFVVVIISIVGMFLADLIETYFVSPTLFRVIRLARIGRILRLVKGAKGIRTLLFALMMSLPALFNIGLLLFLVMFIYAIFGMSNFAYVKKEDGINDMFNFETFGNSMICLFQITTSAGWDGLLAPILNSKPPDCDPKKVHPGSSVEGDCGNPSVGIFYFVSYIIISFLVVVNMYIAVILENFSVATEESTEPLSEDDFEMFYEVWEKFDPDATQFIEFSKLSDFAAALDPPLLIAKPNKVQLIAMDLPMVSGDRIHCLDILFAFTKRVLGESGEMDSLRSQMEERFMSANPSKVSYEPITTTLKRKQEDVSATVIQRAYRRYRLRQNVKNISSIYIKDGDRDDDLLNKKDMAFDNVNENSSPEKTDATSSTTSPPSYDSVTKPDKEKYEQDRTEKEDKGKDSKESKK
T1 sequence (Q07699 19-218 partner): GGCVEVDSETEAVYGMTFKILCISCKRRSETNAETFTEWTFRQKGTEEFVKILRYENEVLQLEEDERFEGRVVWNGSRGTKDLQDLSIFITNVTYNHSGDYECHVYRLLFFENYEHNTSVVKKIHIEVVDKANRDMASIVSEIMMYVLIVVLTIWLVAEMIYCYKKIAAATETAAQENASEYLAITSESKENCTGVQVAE
T2 sequence (Q15858 1-1977 isoform Q15858-3): as the sequence (Q15858 1-1977 isoform Q15858-3) above
T2 sequence (Q07699 19-218 partner): as the sequence (Q07699 19-218 partner) above

On to `O=C(NC(C(=O)O)C1CC1)c1cc(C2CC2)c(COc2cc(Cl)cc(OC(F)(F)F)c2)cc1F` (stereo in doubt) [Example 120, (R)-2-(4-((3-chloro-5-(trifluoromethoxy)phenoxy)methyl)-5-cyclopropyl-2-fluorobenzamido)-2-cyclopropylacetic acid], for which the results for the IC50 at hNav1.7, against human NaV1.7 and on NaV1.5 (read-out: Nav1.5) were 27 nM, 290 nM and 14000 nM, respectively.

On to `CC1(C)CCN(C(=O)c2cc(C3CC3)c(OCC34CC5CC(CC(C5)C3)C4)cc2F)C1C(=O)O` (stereo in doubt) [Example 151, (2R)-1-[4-(1-adamantylmethoxy)-5-cyclopropyl-2-fluoro-benzoyl]-3,3-dimethyl-pyrrolidine-2-carboxylic acid], for which the results for the IC50 on hNav1.7, at human NaV1.7 and on NaV1.5 (read-out: Nav1.5) were 58 nM, 780 nM and 5200 nM, respectively.

As for `O=C(O)C1COCN1C(=O)c1cc(C2CC2)c(OCC23CC4CC(CC(C4)C2)C3)cc1F` (stereo in doubt) [Example 154, (4R)-3-[4-(1-adamantylmethoxy)-5-cyclopropyl-2-fluoro-benzoyl]oxazolidine-4-carboxylic acid], the IC50 at hNav1.7 worked out at 59 nM; against human NaV1.7, 830 nM; at NaV1.5 (read-out: Nav1.5), 16000 nM.

With `O=C(O)[C@@H]1[C@H]2C[C@H]2CN1C(=O)c1cc(C2CC2)c(OCC23CC4CC(CC(C4)C2)C3)cc1F` (stereo in doubt) [Example 171, 3-[4-(1-adamantylmethoxy)-5-cyclopropyl-2-fluoro-benzoyl]-3-azabicyclo[3.1.0]hexane-4-carboxylic acid], the values for the IC50 on hNav1.7, at human NaV1.7 and at NaV1.5 (read-out: Nav1.5) were 25 nM, 240 nM and 9000 nM, respectively.

`O=C(O)[C@@H]1CCCN1C(=O)c1cc(C2CC2)c(OCC23CC4CC(CC(C4)C2)C3)cc1F` [Example 1, (S)-1-(4-(adamantan-1-ylmethoxy)-5-cyclopropyl-2-fluorobenzoyl)pyrrolidine-2-carboxylic acid]: the IC50 worked out at 19.6 nM at hNav1.7, 13.5 nM on human NaV1.7 and 3500 nM at NaV1.5 (read-out: Nav1.5).

Turning to `O=C(NC1(C(=O)O)CC1)c1cc(C2CC2)c(OCC23CC4CC(CC(C4)C2)C3)cc1F` [Example 6, 1-(4-(adamantan-1-ylmethoxy)-5-cyclopropyl-2-fluorobenzamido)-cyclopropanecarboxylic acid], the IC50 on hNav1.7 stood at 3580 nM; at human NaV1.7, 532 nM; on NaV1.5 (read-out: Nav1.5), 2120 nM.

As to `C[C@H](NC(=O)c1cc(C2CC2)c(OCC23CC4CC(CC(C4)C2)C3)cc1F)C(=O)O` [Example 11, (S)-2-(4-(adamantan-1-ylmethoxy)-5-cyclopropyl-2-fluorobenzamido)propanoic acid], the IC50 is 200 nM at hNav1.7, 36.1 nM at human NaV1.7 and 2190 nM on NaV1.5 (read-out: Nav1.5).

As to `O=C(O)[C@H]1CSCN1C(=O)c1cc(C2CC2)c(OCC23CC4CC(CC(C4)C2)C3)cc1F` [Example 50, (4S)-3-[4-(1-adamantylmethoxy)-5-cyclopropyl-2-fluoro-benzoyl]thiazolidine-4-carboxylic acid], the IC50 at hNav1.7 came out at 30 nM; on human NaV1.7 it was 340 nM; on NaV1.5 (read-out: Nav1.5), 19400 nM.

As to `C[C@@]1(C(=O)O)CCCN1C(=O)c1cc(C2CC2)c(OCC23CC4CC(CC(C4)C2)C3)cc1F` [Example 51, (S)-1-(4-((adamantan-1-yl)methoxy)-5-cyclopropyl-2-fluorobenzoyl)-2-methylpyrrolidine-2-carboxylic acid], the IC50 at hNav1.7 turned out to be 100 nM; on human NaV1.7 it was 920 nM; on NaV1.5 (read-out: Nav1.5), 14000 nM.

Turning to `CC(C)(C)[C@H](NC(=O)c1cc(C2CC2)c(OCC23CC4CC(CC(C4)C2)C3)cc1F)C(=O)O` [Example 52, (S)-2-(4-(adamantan-1-ylmethoxy)-5-cyclopropyl-2-fluorobenzamido)-3,3-dimethylbutanoic acid], the IC50 on hNav1.7 was found to be 98 nM; on human NaV1.7, 1400 nM; on NaV1.5 (read-out: Nav1.5) it was 7500 nM.

Consider `O=C(N[C@H](C(=O)O)C1CC1)c1cc(C2CC2)c(OCC2CCN(C(c3cc(Cl)cc(Cl)c3)C(F)(F)F)CC2)cc1F` (stereo partly drawn) [Example 53, (2S)-2-cyclopropyl-2-(5-cyclopropyl-4-((1-(1-(3,5-dichlorophenyl)-2,2,2-trifluoroethyl)piperidin-4-yl)methoxy)-2-fluorobenzamido)acetic acid], for which the IC50 was found to be 17 nM on hNav1.7, 2000 nM against human NaV1.7 and 14000 nM at NaV1.5 (read-out: Nav1.5).

As to `O=C(c1cc(C2CC2)c(OCC23CC4CC(CC(C4)C2)C3)cc1F)N1CCC[C@H]1c1nnn[nH]1` [Example 54, ((S)-2-(1H-tetrazol-5-yl)pyrrolidin-1-yl)(4-(adamantan-1-ylmethoxy)-5-cyclopropyl-2-fluorophenyl)methanone], the IC50 on hNav1.7 came to 58 nM; against human NaV1.7, 620 nM; at NaV1.5 (read-out: Nav1.5), 9700 nM.

Regarding `CC1(COc2cc(F)c(C(=O)N3CCC[C@H]3C(=O)O)cc2C2CC2)CCC2(CC1)CC2(F)F` (stereo partly drawn) [Example 55, (5-cyclopropyl-4-((1,1-difluoro-6-methylspiro[2.5]octan-6-yl)methoxy)-2-fluorobenzoyl)-L-proline], the IC50 on hNav1.7 is 250 nM; against human NaV1.7 it was 790 nM; at NaV1.5 (read-out: Nav1.5), 29000 nM.

Consider `O=C(O)[C@@H]1CCCN1C(=O)c1cc(C2CC2)c(OCC23CCC(F)(CC2)CC3)cc1F` [Example 56, (5-cyclopropyl-2-fluoro-4-((4-fluorobicyclo[2.2.2]octan-1-yl)methoxy)benzoyl)-L-proline], for which the IC50 on hNav1.7 was 410 nM; against human NaV1.7, 1800 nM; on NaV1.5 (human, HEK-293 cells stably expressing human NaV1.5 with β1 subunit, pH 7.4) it was not below 30000 nM.

In the case of `C[C@@H](O)[C@H](NC(=O)c1cc(C2CC2)c(OCC23CC4CC(CC(C4)C2)C3)cc1F)C(=O)O` [Example 57], the IC50 on hNav1.7 came out at 430 nM; on human NaV1.7, 2100 nM; at NaV1.5 (read-out: Nav1.5), 23000 nM.

`CC1(COc2cc(F)c(C(=O)N3CCC[C@H]3C(=O)O)cc2C2CC2)CCC2(CC1)CC2` [Example 58, (5-cyclopropyl-2-fluoro-4-((6-methylspiro[2.5]octan-6-yl)-methoxy)benzoyl)-L-proline]: the IC50 at hNav1.7 amounted to 83 nM; on human NaV1.7 it was 630 nM; at NaV1.5 (read-out: Nav1.5) it was 21000 nM.

In the case of `CO[C@@H]1C[C@@H](C(=O)O)N(C(=O)c2cc(C3CC3)c(OCC34CC5CC(CC(C5)C3)C4)cc2F)C1` [Example 59, (2S,4R)-1-(4-((adamantan-1-yl)methoxy)-5-cyclopropyl-2-fluorobenzoyl)-4-methoxypyrrolidine-2-carboxylic acid], the IC50 at hNav1.7 was determined as 34 nM; against human NaV1.7 it was 550 nM; at NaV1.5 (read-out: Nav1.5), 26000 nM.

For `O=C(O)[C@@H]1C[C@H]2C[C@H]2N1C(=O)c1cc(C2CC2)c(OCC23CC4CC(CC(C4)C2)C3)cc1F` [Example 60, (1R, 3S, 5R)-2-(4-((adamantan-1-yl)methoxy)-5-cyclopropyl-2-fluorobenzoyl)-2-azabicyclo[3.1.0]hexane-3-carboxylic acid], the IC50 on hNav1.7 stood at 340 nM; at human NaV1.7, 1900 nM; at NaV1.5 (read-out: Nav1.5), 13000 nM.

As for `O=C(O)[C@@H]1[C@H](O)CCN1C(=O)c1cc(C2CC2)c(OCC23CC4CC(CC(C4)C2)C3)cc1F` [Example 62, (2S, 3R)-1-(4-((adamantan-1-yl)methoxy)-5-cyclopropyl-2-fluorobenzoyl)-3-hydroxypyrrolidine-2-carboxylic acid], the IC50 at hNav1.7 is 160 nM; against human NaV1.7, 1100 nM; at NaV1.5 (read-out: Nav1.5), 28000 nM.

In the case of `O=C(O)[C@@H]1[C@H](F)CCN1C(=O)c1cc(C2CC2)c(OCC23CC4CC(CC(C4)C2)C3)cc1F` [Example 63, (2R, 3R)-1-(4-((adamantan-1-yl)methoxy)-5-cyclopropyl-2-fluorobenzoyl)-3-fluoropyrrolidine-2-carboxylic acid], the figures for the IC50 at hNav1.7, against human NaV1.7 and on NaV1.5 (read-out: Nav1.5) were 170 nM, 980 nM and 18000 nM, respectively.
